Measurements published in patent US9102648B1, “Bioavailable diacylhydrazine ligands for modulating the expression of exogenous genes via an ecdysone receptor complex” (Intrexon Corporation, priority 2003, dated 2015).

Columns and labels:
[1] = target: GAL4 DBD (1-147)-CfEcR(DEF)/VP16AD-βRXREF-LmUSPEF (Choristoneura fumiferana, UniProt O77240); experiment: cell-based; settings: for 27-63 assay Rel Max FI: maximum fold induction at any concentration relative to that of GS-E ligand, CHO 27-63 cells; for fold induction at 33 µM: read-out: Fold Induction, 27-63 Assay, 33 uM
[2] = system: mutated ecdysone receptor-based gene switch; experiment: In vivo SEAP induction, ligand by IP injection; parameters: species or system C57BL/6 mouse; settings: IP 26 nmol ligand
Experimental: Applicants' ligands are useful in various applications including gene therapy, expression of proteins of interest in host cells, production of transgenic organisms, and cell-based assays. In vivo induction of a reporter enzyme with various ligands of the present invention was evaluated in a C57BL/6 mouse model system containing a gene switch.
Each element of the gene switch was on a separate plasmid. Receptor expression was under the control of a CMV promoter (SEQ ID NO: 15). Induction was evaluated by the amount of reporter protein expressed in the presence of ligand.
SEAP expression in serum of mice was evaluated after electroporation of the gene switch into mouse quadriceps. Mice were anesthetized with 2 μL/g of a mixture of ketamine (100 mg/mL) and xylazine (20 mg/mL). Animals were then shaved, DNA vectors injected into the muscle in a volume of 2×50 μL polyglutamic acid (12 mg/mL water), electrode conductivity gel applied, and an electrode caliber (1 cm×1 cm; model 384) was placed on hind leg. The muscle was electroporated with 200 V/cm, 8 times, for 20 msec/pulse, at 1 sec time intervals. The transverse electrical field direction was reversed after the animals received half of the pulses. Electroporation was performed with an ECM 830 electroporator from BTX Molecular Delivery Systems.
In some experiments mice received an intraperitoneal injection (IP) of 2.6 μmol of ligand in 50 μL of DMSO 3 days after electroporation of the gene switch. In other experiments the concentration of ligand was decrease to 26 nmol/50 μL of DMSO/mouse. SEAP expression was evaluated 2-11 days after ligand administration. In other experiments ligand was administered in rodent chow. The chow was prepared by dissolving 2 g of ligand in 20 mL of acetone and adding it to 1 kg of LabDiet 5010 autoclavable chow from Purina Mills. This was thoroughly mixed in a Hobart mixer and then mixed for an additional 15 min in a Cross Blend mixer. Animals received chow ad libitum for 1, 2, or 3 days. All values are the average from four animals. Background SEAP in sera from animals treated with vector alone without ligand addition was 0-11 ng/mL serum.
Mouse serum was obtained by centrifugation of blood acquired by retroorbital bleeding with a small glass capillary tube. SEAP quantification was determined using a Clontech Great Escape chemiluminescence kit and by comparison with the Clontech SEAP standard.
Table 9: In vivo evaluation of ligand-mediated induction of a mutated ecdysone receptor-based gene switch. SEAP expression in serum of mice was evaluated after electroporation of the gene expression cassettes into mouse quadriceps. Mice received an IP injection of 2.6 μmol of ligand 3 days after electroporation. SEAP expression was evaluated 2-11 days after ligand administration. Each dose group was composed of four animals. Percentage of GS™-E ligand induction was determined by averaging SEAP expression from four animals divided by the average SEAP expression induced with GS™-E ligand and then multiplying by 100.
Table 10: Induction of gene switch expression with low concentrations of ligand. SEAP expression in serum of mice was evaluated after electroporation of the gene expression cassettes into mouse quadriceps. Mice received an IP injection of 26 nmol of ligand or 130 nmol GS™-E ligand 3 days after electroporation. SEAP expression was evaluated 2-7 days after ligand administration. Values are the average from 4 animals.

[3] = target: T1, Bombyx mori EcR (VP16 fusion, CVBE switch construct) (Bombyx mori, UniProt P49881); experiment: Z3 Assay (HEK-293 cells with CVBE and 6XEcRE LacZ, β-galactosidase reporter); settings: for Fold Induction, Z3 Assay, 3.3 uM: 3.3 uM ligand; for Fold Induction, Z3 Assay, 3.3 uM / Fold Induction, Z3 Assay, 33 uM: ligand treated / DMSO treated cells; for Fold Induction, Z3 Assay, 3.3 uM / EC50 / Fold Induction, Z3 Assay, 33 uM: average of two wells; for Z3 assay Rel Max FI: maximum fold induction at any concentration relative to that of GS-E ligand; for Z3 assay Rel Max FI / EC50: HEK-293 Z3 cells; for EC50: read-out: Z3 assay EC50, β-galactosidase reporter; for Fold Induction, Z3 Assay, 33 uM: 33 uM ligand
T1 sequence (P49881 86-606): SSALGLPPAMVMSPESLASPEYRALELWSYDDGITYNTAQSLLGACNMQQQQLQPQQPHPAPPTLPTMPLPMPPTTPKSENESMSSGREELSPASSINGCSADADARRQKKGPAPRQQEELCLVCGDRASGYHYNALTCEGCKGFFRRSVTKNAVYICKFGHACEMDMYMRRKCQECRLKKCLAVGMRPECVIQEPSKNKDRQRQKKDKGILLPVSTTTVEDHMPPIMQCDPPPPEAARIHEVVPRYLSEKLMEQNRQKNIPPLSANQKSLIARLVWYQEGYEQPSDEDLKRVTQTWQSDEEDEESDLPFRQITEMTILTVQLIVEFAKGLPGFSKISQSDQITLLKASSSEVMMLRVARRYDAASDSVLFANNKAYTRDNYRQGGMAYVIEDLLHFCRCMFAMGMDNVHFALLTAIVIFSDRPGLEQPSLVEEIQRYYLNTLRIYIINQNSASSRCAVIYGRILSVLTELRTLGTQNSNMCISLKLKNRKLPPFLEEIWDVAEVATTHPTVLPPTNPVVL
T1 sequence (P19793 1-462 partner): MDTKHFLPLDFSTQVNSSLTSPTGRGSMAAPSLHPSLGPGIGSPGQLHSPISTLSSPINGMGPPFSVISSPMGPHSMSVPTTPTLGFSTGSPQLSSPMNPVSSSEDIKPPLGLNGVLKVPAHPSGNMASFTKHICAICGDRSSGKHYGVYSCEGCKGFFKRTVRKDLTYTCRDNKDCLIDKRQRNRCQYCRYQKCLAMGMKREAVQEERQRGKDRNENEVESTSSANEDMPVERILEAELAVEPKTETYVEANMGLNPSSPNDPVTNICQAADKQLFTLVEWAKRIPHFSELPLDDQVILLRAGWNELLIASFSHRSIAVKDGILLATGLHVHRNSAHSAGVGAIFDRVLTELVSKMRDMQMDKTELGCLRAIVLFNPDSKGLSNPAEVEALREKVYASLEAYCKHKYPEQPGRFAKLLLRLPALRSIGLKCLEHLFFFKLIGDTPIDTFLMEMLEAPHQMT

[4] = target: GAL4 DBD-CfEcR(DEF)/VP16AD-MmRXRE (Choristoneura fumiferana, UniProt O77240); experiment: 13B3 Assay (CHO stable cell line, luciferase reporter); settings: for Fold Induction, 13B3 Assay, 3.3 uM: 3.3 uM ligand; for Fold Induction, 13B3 Assay, 3.3 uM / Fold Induction, 13B3 Assay, 33 uM: RLU ligand treated / RLU DMSO treated cells; for Fold Induction, 13B3 Assay, 3.3 uM / Fold Induction, 13B3 Assay, 33 uM / EC50: average of two wells; for Fold Induction, 13B3 Assay, 33 uM: 33 uM ligand; for 13B3 assay Rel Max FI: maximum fold induction at any concentration relative to that of GS-E ligand, CHO 13B3 cells; for EC50: read-out: 13B3 EC50, CHO 13B3 stable cell line, luciferase reporter, 48 h
Procedure, shortened: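 CHO 13B3 clone stably expressing GAL4 DBD–CfEcR(DEF) and VP16AD–MmRXR(DE) with GAL4 RE–luciferase reporter; cells plated 24 h at 37 °C, then treated with ligands (DMSO stocks diluted 300-fold), 8 concentrations 33–0.01 μM.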

SMILES	EC50 [1]	27-63 assay Rel Max FI [1]	fold induction at 33 µM [1]	Secreted Alkaline Phosphatase Day 2 [2]	Secreted Alkaline Phosphatase Day 3 [2]	Fold Induction, Z3 Assay, 3.3 uM [3]	Z3 assay Rel Max FI [3]	EC50 [3]	Fold Induction, 13B3 Assay, 3.3 uM [4]	Fold Induction, 13B3 Assay, 33 uM [4]	13B3 assay Rel Max FI [4]	EC50 [4]	fold induction at 33 µM ([3]; HEK293, read-out: Fold Induction, Z3 Assay, 33 uM)	fold induction at 33 µM ([4]; read-out: Fold Induction, 13B3 Assay, 33 uM)	Fold Induction, Z3 Assay, 33 uM [3]
CCc1c(C(=O)NN(C(=O)c2cc(C)cc(C)c2)C(CC)C(C)(C)C)ccc2c1OCCO2 (stereo not drawn) [RG-115858, 3,5-dimethyl-benzoic acid N′-(5-ethyl-2,3-dihydro-benzo[1,4]dioxine-6-carbonyl)-N-(1-ethyl-2,2-dimethyl-propyl)-hydrazide]	5 nM	0.915	182	13,661 ng/ml mouse sera	11,820 ng/ml mouse sera	–	–	–	–	–	–	–	–	–	–
CCC(N(NC(=O)c1ccc2c(c1C)OCCO2)C(=O)c1cc(C)cc(C)c1)C(C)(C)C (stereo not drawn) [RG-115856, 3,5-Dimethyl-benzoic acid N-(1-ethyl-2,2-dimethyl-propyl)-N′-(5-methyl-2,3-dihydro-benzo[1,4]dioxine-6-carbonyl)-hydrazide]	3 nM	0.879	1760	2,292 ng/ml mouse sera	2,350 ng/ml mouse sera	–	–	–	–	–	–	–	–	–	–
CCC(N(NC(=O)c1ccc2c(c1C)OCCO2)C(=O)c1cc(OC)c(C)c(OC)c1)C(C)(C)C (stereo not drawn) [RG-115857, 3,5-Dimethoxy-4-methyl-benzoic acid N-(1-ethyl-2,2-dimethyl-propyl)-N′-(5-methyl-2,3-dihydro-benzo[1,4]dioxine-6-carbonyl)-hydrazide]	13 nM	1.140	328	574 ng/ml mouse sera	401 ng/ml mouse sera	–	–	–	–	–	–	–	–	–	–
CCc1ccc(C(=O)NN(C(=O)c2cc(OC)c(C)c(OC)c2)C(C)(C)C)c(F)c1 [RG-115077]	–	–	–	–	–	294	0.911	389 nM	932	199	1.509	847 nM	–	–	–
CCc1c(OC)cccc1C(=O)NN(C(=O)c1ccc2nc[nH]c2c1)C(C)(C)C [RG-115719, 3H-benzoimidazole-5-carboxylic acid N-tert-butyl-N′-(2-ethyl-3-methoxy-benzoyl)-hydrazide]	–	–	–	–	–	–	–	–	–	–	–	–	271	1	–
CCc1c(OC)cccc1C(=O)NN(C(=O)c1cc(OC)ccc1OC)C(C)(C)C [RG-100779]	–	–	–	–	–	947	0.707	178 nM	–	2979	–	–	–	–	304
CC(=O)Oc1cccc(C(=O)NN(C(=O)c2cc(C)cc(C)c2)C(C)(C)C)c1C [RG-100749]	–	–	–	–	–	874	0.951	2690 nM	–	288	–	–	–	–	145
CCc1c(OC)cccc1C(=O)NN(C(=O)c1cc(OC)c(O)c(OC)c1)C(C)(C)C [RG-115116]	–	–	–	–	–	276	0.960	3310 nM	2	–	1.172	> 50000 nM	–	–	–
COc1cccc(C(=O)NN(C(=O)c2cc(C)cc(C)c2)C(C)(C)C)c1C[S+](C)[O-] (stereo not drawn) [RG-115172]	–	–	–	–	–	1	0.32	> 50000 nM	1	–	0	> 50000 nM	–	–	216
CCc1ccc(C(=O)NN(C(=O)c2cc(F)c(F)c(F)c2)C(C)(C)C)c(F)c1 [RG-115259]	–	–	–	–	–	91	0.617	427 nM	3513	2981	0.702	2700 nM	–	–	–
Cc1c(C(=O)NN(C(=O)c2cc(Cl)nc(Cl)c2)C(C)(C)C)ccc2c1OCCO2 [RG-115536]	–	–	–	–	–	488	0.950	126 nM	483	–	0.734	781 nM	–	–	–
Cc1c(C(=O)NN(C(=O)c2ccccc2[S+](C)[O-])C(C)(C)C)ccc2c1OCCO2 (stereo not drawn) [RG-115064]	–	–	–	–	–	1	0.031	> 50000 nM	2	415	0.000	> 50000 nM	–	–	3
COc1cc(F)ccc1C(=O)N(NC(=O)c1cccc(OC)c1C)C(C)(C)C [RG-100524]	–	–	–	–	–	991	1.002	263 nM	–	1211	–	–	–	–	146
COc1cccc(C(=O)NN(C(=O)c2cc(C)cc(C)c2)C(C)(C)C)c1I [RG-101528]	–	–	–	–	–	748	0.923	1050 nM	259	3027	1.111	29300 nM	–	–	1515
